pKd: −log10 of the molar value. Where two headings read alike, the source gives them in different places.
How the values were obtained:
[1] = molecular target: T1, levetiracetam binding site (LBS) (Rattus norvegicus, UniProt Q02563); details: cited from earlier work
T1 construct: host or cells: crude rat brain membranes (Noyer et al. 1995; Gillard et al. 2003)

hSV2A = molecular target: T2, hSV2A (Homo sapiens, UniProt Q7L0J3); assay: [3H]ucb 30889 binding to hSV2A expressed in COS-7 cells; details: for competition with [3H]ucb 30889 for binding to SV2A: concentrations up to 100 μM
T2 construct: expressed in transfected cells; host or cells: COS-7 cells, transient transfection (pDEST 12.2 Gateway vector, CMV promoter)

audiogenic seizures = details: in vivo; cited from earlier work
[2] = system: refractory partial seizures; details: adjunctive therapy; cited from earlier work
[3] = molecular target: T1, levetiracetam binding site (LBS); assay: [3H]ucb 30889 binding to crude rat brain membranes (kinetic, saturation, competition)
Description: (§1) Binding experiments were conducted on crude rat brain membranes at 4° C. as described in Noyer et al. (Euro. J. Pharmacol. 286:137-146 (1995)). Incubation time for equilibrium studies was 120 min. For kinetic and competition studies, [^3H]ucb 30889 (30 Ci/mmol) was used at a concentration of 1.3 nM in 0.5 ml of a Tris-HCl (pH 7.4) buffer containing 2 mM Mg^2+. Localization of the LBS in brain substructures was assessed by autoradiography on 25 μm thick slices incubated under similar conditions. Slides were then washed twice for 10 min at 4° C. in 50 mM Tris-HCl (pH 7.4) containing 0.5% BSA, dried and exposed for 3 weeks to [^3H]Hyperfilm at −20° C. Non-specific binding (NSB) was determined by the inclusion of 1 mM LEV during the incubation period.

[4] = system: LBS in peripheral tissues; assay: [3H]ucb 30889 specific binding in peripheral tissues; details: 150 μg protein/assay, 1.3 nM radioligand; detection limit Bmax 200 fmol/mg protein
Description: as §1
The limit of detection under the experimental conditions (150 μg of protein/assay and 1.3 nM of radioligand) was a Bmax of 200 fmol/mg protein.

[5] = system: Rat cerebellar granule neurons; assay: [3H]ucb 30889 binding in rat cerebellar granule neurons
Description: (§2) To identify and characterize the LBS in situ, [^3H]ucb 30889 was used to map the LBS within the brain and to study both its cellular and subcellular distribution. For rat brain autoradiography, 25 μm slices were incubated with 1.3 nM [^3H]ucb 30889 for 120 min at 4° C. in 50 mM Tris-HCl buffer (pH 7.4). Binding assays with rat brain membranes and various neuronal cell lines were performed under similar conditions. […] For photolabeling, membranes were incubated with 40 nM [^3H]ucb 30889 for 120 min at 4° C. in the same buffer, followed by irradiation with UV-light for 30 min (Fuks et al., Eur. J. Pharmacol. 478:11-19 (2003)).

Mouse cortical neurons = assay: [3H]ucb 30889 binding in mouse cortical neurons
Description: as §2

PC12 = assay: [3H]ucb 30889 binding in PC12 cells; design: species or system rat
Description: as §2

COS-7 = assay: [3H]ucb 30889 binding in untransfected COS-7 cells; details: untransfected COS-7 cell line
Description: as §2
In addition, a PC12 cell line subclone, PC12a, which is low in LBS, was used to establish a pool of PC12 cells expressing hSV2A under stable antibiotic selection.

hSV2B = molecular target: T3, hSV2B (Homo sapiens, UniProt Q7L1I2); assay: [3H]ucb 30889 binding to hSV2B expressed in COS-7 cells; details: transient COS-7 system
T3 construct: expressed in transfected cells; host or cells: COS-7 cells, transient expression

hSV2C = molecular target: T4, hSV2C (Homo sapiens, UniProt Q496J9); assay: [3H]ucb 30889 binding to hSV2C expressed in COS-7 cells; details: transient COS-7 system
T4 construct: expressed in transfected cells; host or cells: COS-7 cells, transient expression
T4 sequence (Q496J9 1-727): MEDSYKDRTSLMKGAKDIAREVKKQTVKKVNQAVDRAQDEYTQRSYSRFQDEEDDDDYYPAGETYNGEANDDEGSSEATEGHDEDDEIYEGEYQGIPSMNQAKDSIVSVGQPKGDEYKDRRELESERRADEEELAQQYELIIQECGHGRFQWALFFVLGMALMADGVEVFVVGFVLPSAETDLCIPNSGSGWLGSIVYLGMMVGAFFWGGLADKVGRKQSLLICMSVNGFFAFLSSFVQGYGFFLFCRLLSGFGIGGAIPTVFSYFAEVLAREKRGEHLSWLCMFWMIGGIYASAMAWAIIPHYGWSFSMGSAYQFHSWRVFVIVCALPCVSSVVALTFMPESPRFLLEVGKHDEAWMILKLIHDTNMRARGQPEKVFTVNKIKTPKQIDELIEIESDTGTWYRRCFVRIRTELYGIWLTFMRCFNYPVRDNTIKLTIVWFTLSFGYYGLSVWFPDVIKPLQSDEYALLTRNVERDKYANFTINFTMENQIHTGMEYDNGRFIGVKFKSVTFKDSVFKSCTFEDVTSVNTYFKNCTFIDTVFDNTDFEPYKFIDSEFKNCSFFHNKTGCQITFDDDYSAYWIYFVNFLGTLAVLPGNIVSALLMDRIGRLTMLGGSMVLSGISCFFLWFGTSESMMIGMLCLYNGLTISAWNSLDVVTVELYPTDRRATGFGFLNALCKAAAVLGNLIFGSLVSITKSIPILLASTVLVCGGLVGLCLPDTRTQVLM

PC12bs cells (LBS) = assay: Intact cell [3H]ucb 30889 binding in PC12bs cells; design: species or system rat; details: identical conditions
Description: In a binding experiment, specific binding was measured of [^3H]ucb 30889 to COS-7 cells that have either been transfected with SV2A-12.2, or as controls, a β-gal expressing vector, or cells that have not been transfected (FIG. 13). […] The cells were incubated at 4° C. for 2 hours, and then washed rapidly with ice-cold PBS. The cells were lysed on the plate, transferred to scintillation vials with scintillation fluid and counted for ^3H decay emission. […] In identical intact cell binding experiments using PC12bs cells, known to express the LBS, a 1.5 to 2-fold difference in CPM between the ‘hot’ and ‘hot+cold’ samples is typically seen, as compared to the 5-fold difference seen here.

SV2A in native membrane = molecular target: T5, SV2A in native membrane (Rattus norvegicus, UniProt Q02563); assay: Scatchard analysis of [3H]ucb 30889 binding, native rat brain membrane
T5 construct: from tissue

soluble SV2A = molecular target: T6, soluble SV2A (Rattus norvegicus, UniProt Q02563); assay: [3H]ucb 30889 binding to n-dodecyl-β-D-maltoside solubilized SV2A; details: soluble protein in n-dodecyl-β-D-maltoside; read-out: KD (Scatchard analysis)
T6 construct: from tissue; host or cells: supernatant of detergent-solubilised rat brain membranes
Description: The rat brain membranes were diluted in a solubilization buffer (Tris-HCl 20 mM pH 7.4, 0.25 M sucrose, protease inhibitors Complete Roche) containing n-dodecyl-β-D-maltoside 15 mM and incubated for two hours at 4° C. Subsequently, the solution was centrifuged at 4° C. for one hour at 100,000 g. The soluble SV2A was found in the supernatant as detected by western blot using anti-SV2A antibodies (FIG. 21A). The supernatants were incubated with [^3H]ucb 30889 as described. […] Thus, the binding properties of the soluble SV2A are similar to the membrane-bound native form indicative that the soluble protein maintains its native structural conformation in n-dodecyl-β-D-maltoside.

[6] = rat brain cortex, 4° C., fast component (25 to 50% of the sites)
[7] = rat brain cortex, 4° C., slow component

T2 sequence (Q7L0J3 whole entry): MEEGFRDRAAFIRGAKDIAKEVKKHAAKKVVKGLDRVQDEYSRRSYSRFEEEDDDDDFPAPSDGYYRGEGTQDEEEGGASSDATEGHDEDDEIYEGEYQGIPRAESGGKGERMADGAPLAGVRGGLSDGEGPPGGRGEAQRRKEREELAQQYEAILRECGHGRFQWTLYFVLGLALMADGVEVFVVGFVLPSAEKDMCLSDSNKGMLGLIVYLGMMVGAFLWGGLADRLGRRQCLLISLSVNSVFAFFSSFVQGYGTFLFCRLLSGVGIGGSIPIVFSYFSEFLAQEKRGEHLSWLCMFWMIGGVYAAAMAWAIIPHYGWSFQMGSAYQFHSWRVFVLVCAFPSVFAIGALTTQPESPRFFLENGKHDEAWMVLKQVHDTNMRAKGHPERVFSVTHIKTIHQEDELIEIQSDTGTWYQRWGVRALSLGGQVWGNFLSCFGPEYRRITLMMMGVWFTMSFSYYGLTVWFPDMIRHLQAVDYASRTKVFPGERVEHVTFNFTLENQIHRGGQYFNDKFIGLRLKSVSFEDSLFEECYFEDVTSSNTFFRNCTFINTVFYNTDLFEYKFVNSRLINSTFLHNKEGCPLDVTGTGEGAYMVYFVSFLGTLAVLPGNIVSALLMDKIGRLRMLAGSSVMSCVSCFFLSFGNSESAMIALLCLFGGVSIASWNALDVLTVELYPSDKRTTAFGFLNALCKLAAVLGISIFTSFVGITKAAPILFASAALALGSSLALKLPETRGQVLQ
T1 sequence (Q02563 whole entry): as the sequence (Q7L0J3 whole entry) above, with D53E, S62A, T71A, E144D, A154T, G440S, S482A, I572V, M634L counted along it
T6 sequence (Q02563 whole entry): as the sequence (Q7L0J3 whole entry) above, with D53E, S62A, T71A, E144D, A154T, G440S, S482A, I572V, M634L counted along it
T5 sequence (Q02563 whole entry): as the sequence (Q7L0J3 whole entry) above, with D53E, S62A, T71A, E144D, A154T, G440S, S482A, I572V, M634L counted along it
T3 sequence (Q7L1I2 whole entry): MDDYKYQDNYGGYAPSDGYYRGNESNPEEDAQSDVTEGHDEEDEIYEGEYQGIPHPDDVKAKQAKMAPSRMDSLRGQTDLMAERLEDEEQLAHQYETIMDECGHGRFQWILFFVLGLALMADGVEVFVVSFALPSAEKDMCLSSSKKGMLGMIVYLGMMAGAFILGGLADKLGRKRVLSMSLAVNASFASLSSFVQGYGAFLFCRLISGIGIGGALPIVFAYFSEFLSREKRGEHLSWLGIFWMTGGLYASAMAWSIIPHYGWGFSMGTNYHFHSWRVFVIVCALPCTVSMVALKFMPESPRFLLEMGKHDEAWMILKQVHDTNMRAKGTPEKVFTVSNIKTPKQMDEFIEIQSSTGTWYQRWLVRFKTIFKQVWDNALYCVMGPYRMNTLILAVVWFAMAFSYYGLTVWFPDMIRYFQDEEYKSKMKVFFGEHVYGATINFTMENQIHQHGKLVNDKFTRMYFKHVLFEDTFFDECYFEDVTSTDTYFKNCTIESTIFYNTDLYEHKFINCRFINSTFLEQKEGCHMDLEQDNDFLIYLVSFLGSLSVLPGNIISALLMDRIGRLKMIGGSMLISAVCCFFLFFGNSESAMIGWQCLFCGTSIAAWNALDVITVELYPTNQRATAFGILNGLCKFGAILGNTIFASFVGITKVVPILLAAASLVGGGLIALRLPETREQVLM

## COc1ccc(C(=O)N2CCCC2=O)cc1 [aniracetam]
[1]
  displacement of LEV binding: displaced LEV binding

## CCC1(C)CC(=O)NC(=O)C1 [bemegride]
[1]
  displacement of LEV binding: competed with LEV

## NC(=O)N1c2ccccc2C=Cc2ccccc21 [carbamazepine]
hSV2A
  competition with [3H]ucb 30889 for binding to SV2A: None of the AEDs at concentrations up to 100 μM, competed
[1]
  displacement of LEV binding: do not displace LEV binding

## O=C1CN=C(c2ccccc2Cl)c2cc([N+](=O)[O-])ccc2N1 [clonazepam]
[1]
  displacement of LEV binding: do not displace LEV binding

## CCC1(C)CC(=O)NC1=O (stereo not drawn) [ethosuximide]
hSV2A
  competition with [3H]ucb 30889 for binding to SV2A: None of the AEDs at concentrations up to 100 μM, competed
[1]
  displacement of LEV binding: competed with LEV

## NC(=O)OCC(COC(N)=O)c1ccccc1 [felbamate]
hSV2A
  competition with [3H]ucb 30889 for binding to SV2A: None of the AEDs at concentrations up to 100 μM, competed
[1]
  displacement of LEV binding: do not displace LEV binding

## NCC1(CC(=O)O)CCCCC1 [gabapentin]
hSV2A
  competition with [3H]ucb 30889 for binding to SV2A: None of the AEDs at concentrations up to 100 μM, competed
[1]
  displacement of LEV binding: do not displace LEV binding

## CC[C@@H](C(N)=O)N1CCCC1=O [levetiracetam, (S)-α-ethyl-2-oxo-1-pyrrolidine acetamide]
[1]; listed as LEV
  affinity for the binding site: modest affinity
[1]; listed as [^3H]LEV
  affinity for the binding site: only micromolar affinity
Audiogenic seizures
  suppression of seizures in the audiogenic-susceptible mouse: unexpected potent ability
[2]
  control of refractory partial seizures in adults: both effective and well tolerated

## CCCC(C)C1(CC)C(=O)NC(=O)NC1=O (stereo not drawn) [pentobarbital]
[1]
  displacement of LEV binding: competed with LEV

## C1CCc2nnnn2CC1 [pentylenetetrazole]
[1]
  displacement of LEV binding: competed with LEV

## O=C1NC(=O)C(c2ccccc2)(c2ccccc2)N1 [phenytoin]
hSV2A
  competition with [3H]ucb 30889 for binding to SV2A: None of the AEDs at concentrations up to 100 μM, competed
[1]
  displacement of LEV binding: do not displace LEV binding

## Cc1ccsc1C(=CCCN1CCC[C@@H](C(=O)O)C1)c1sccc1C [tiagabine]
hSV2A
  competition with [3H]ucb 30889 for binding to SV2A: None of the AEDs at concentrations up to 100 μM, competed
[1]
  displacement of LEV binding: do not displace LEV binding

## CC[C@@H](C(N)=O)N1CC(c2cccc(N=[N+]=[N-])c2)CC1=O (stereo partly drawn) [ucb 30889, (2S)-2-[4-(3-azidophenyl)-2-oxopyrrolidin-1-yl]butanamide]
[3]; [6]
  half-time for association, fast component: 3 ± 2 min
  half-time for dissociation, fast component: 4 ± 1 min
[3]; [7]
  half-time for association, slow component: 47 ± 13 min
  half-time for dissociation, slow component: 61 ± 15 min
[3]; rat brain membranes, substance used as radioligand
  Bmax (saturation binding): 5054±704 fmol/mg protein
[4]
  specific binding in peripheral tissues: could not be detected
[5]
  Bmax: 0.7 pmol/mg protein
  pKd: 7.23
Mouse cortical neurons
  Bmax: 1.4 pmol/mg protein
  pKd: 7.47
PC12
  Bmax: 1.4 pmol/mg
  pKd: 7.40
COS-7
  binding above background: no binding above background
hSV2A; COS-7 transfected with SV2A-12.2, 1 nM radioligand ± 50 μM cold Levetiracetam, 4° C., 2 hours
  difference in CPM between 'hot' and 'hot+cold' samples: 5 fold
hSV2B
  binding above background: no binding above background
hSV2C
  binding above background: no binding above background
PC12bs cells (LBS)
  difference in CPM between 'hot' and 'hot+cold' samples: 1.5 to 2 fold
SV2A in native membrane
  pKd: 7.52
Soluble SV2A
  pKd: 7.09

## CC[C@@H](C(N)=O)N1CCCC1=O [ucb L060]
hSV2A; displacement of [3H]ucb 30889, COS-7
  affinity to hSV2A compared with LEV: significantly less affinity

## CCCC(CCC)C(=O)O [valproate]
hSV2A
  competition with [3H]ucb 30889 for binding to SV2A: None of the AEDs at concentrations up to 100 μM, competed
[1]
  displacement of LEV binding: do not displace LEV binding

## C=CC(N)CCC(=O)O (stereo not drawn) [vigabatrin]
hSV2A
  competition with [3H]ucb 30889 for binding to SV2A: None of the AEDs at concentrations up to 100 μM, competed
[1]
  displacement of LEV binding: do not displace LEV binding

## NS(=O)(=O)Cc1noc2ccccc12 [zonisamide]
hSV2A
  competition with [3H]ucb 30889 for binding to SV2A: None of the AEDs at concentrations up to 100 μM, competed
[1]
  displacement of LEV binding: do not displace LEV binding

## picrotoxin
[1]
  displacement of LEV binding: do not displace LEV binding

— US20070135514A1, “Methods for the identification of agents for the treatment of seizures, neurological diseases, endocrinopathies and hormonal diseases” (priority 2002, published 2007)
